In patent US9426990B2, “Herbicidal agents containing aclonifen” (BAYER CROPSCIENCE AG, priority 2012, dated 2016):

Experiments:
[1] = tested on: Lolium spp. resistant to HRAC group B; test: greenhouse experiment, post-emergence treatment of resistant ryegrass biotypes (HRAC group B resistant); assay type: in vivo; conditions: post-emergence (PO, BBCH 11), about 3 weeks after application, dose g of AS/ha: aclonifen 225, pendimethalin 300, picolinafen 25, mixture 225 + 300 + 25, mesosulfuron + iodosulfuron + mefenpyr 15 + 3 + 45
Protocol: (§1) In the standard design of the test, seeds of various broad-leaved weed and weed grass biotypes (origins) were sown in a 8-13 cm diameter pot filled with natural soil of a standard field soil (loamy silt; non-sterile) and covered with a covering soil layer of about 1 cm. The pots were then cultivated in a greenhouse (12-16 h light, temperature day 20-22° C., night 15-18° C.) until the time of application. The pots were treated on a laboratory track sprayer with spray liquors comprising the compositions according to the invention, mixtures of the prior art or components used individually. Application of the active compounds or active compound combinations formulated as WG, WP, EC or otherwise was carried out at the appropriate growth stages of the plants. The amount of water used for spray application was 100-600 l/ha. After the treatment, the plants were returned to the greenhouses.
(§2) About 3 weeks after the application, the soil action or/and foliar action was assessed visually according to a scale of 0-100% in comparison to an untreated comparative group: 0%=no noticeable effect compared to the untreated comparative group; 100%=full effect compared to the untreated comparative group.
(§3) 2. Post-emergence action against weeds: seeds of various broad-leaved weed and weed grass biotypes (origins) were sown in a 8-13 cm diameter pot filled with natural soil of a standard field soil (loamy silt; non-sterile) and covered with a covering soil layer of about 1 cm. The pots were then cultivated in a greenhouse (12-16 h of light, temperature day 20-22° C., night 15-18° C.) until the time of application. […]
(§4) Insofar as herbicidal effects of the compositions according to the invention compared to mixtures of the prior art or compared to components applied individually against economically important mono- and dicotyledonous harmful plants were the center of attention, the synergistic herbicidal activities were calculated using Colby's formula (cf. S. R. Colby; Weeds 15 (1967), 20-22): E^C=(A+B+C)−(A×B+A×C+B×C)/100+(A×B×C)/10000 where: […]

[2] = tested on: Lolium spp. resistant to HRAC group A; test: greenhouse experiment, post-emergence treatment of resistant ryegrass biotypes (HRAC group A resistant); assay type: in vivo; conditions: post-emergence (PO, BBCH 11), about 3 weeks after application, dose g of AS/ha: aclonifen 225, pendimethalin 300, picolinafen 25, mixture 225 + 300 + 25, pinoxaden + cloquintocet-mexyl 60 + 15
Protocol: as §1, §2, §3, §4

SMILES | herbicidal effect, visual assessment on a scale of 0-100% versus untreated comparative group [1] [%] | herbicidal effect, visual assessment on a scale of 0-100% versus untreated comparative group [2] [%]
Nc1c([N+](=O)[O-])ccc(Oc2ccccc2)c1Cl [(A) aclonifen, 2-chloro-6-nitro-3-phenoxybenzenamine] | 50 | 25
CCC(CC)Nc1c([N+](=O)[O-])cc(C)c(C)c1[N+](=O)[O-] [(B) pendimethalin, N-(1-ethylpropyl)-3,4-dimethyl-2,6-dinitrobenzenamine] | 0 | 5
O=C(Nc1ccc(F)cc1)c1cccc(Oc2cccc(C(F)(F)F)c2)n1 [(C) picolinafen, N-(4-fluorophenyl)-6-[3-(trifluoromethyl)phenoxy]-2-pyridinecarboxamide] | 5 | 10
